Laboratory results published in US11987647B2, “Cyclic cell-penetrating peptides with one or more hydrophobic residues” (Ohio State Innovation Foundation, priority 2018, dated 2024).
[ ]: non-standard residue; d: D form. The star is where a group is joined. FtBu = phenylalanine with a tert-butanoyl substituent (F^tBu); 2Nal = N[C@@H](Cc1ccc2ccccc2c1)C(=O)O; Fmoc = O=C(OCC1c2ccccc2-c2ccccc21)*; Decanoyl = CCCCCCCCCC(=O)*; Octanoyl = CCCCCCCC(=O)*; Orn = NCCC[C@H](N)C(=O)O; Dap = NC[C@H](N)C(=O)O; Hexanoyl = CCCCCC(=O)*

Legend:
Assay type in all cases: cell-based
HeLa cells [1] = assay: Cytosolic entry efficiency of NF-labelled peptides by flow cytometry; settings: for sensitivity to serum concentration: 10% vs 1% FBS, compared with CPP9 or CPP12; for Cellular Entry Efficiency In 10% FBS: 2 h, relative to CPP12 (100%); for CPP activity compared with CPP1-4 (in words): variant of CPP1-4; for CPP activity compared with CPP1-15 (in words): stereochemical variation of CPP1-15
Procedure: All of the peptides were labeled with naphthofluorescein (NF) at the Gln side chain through a long, flexible linker, miniPEG-Lys. HeLa cells were treated with 5 μM peptide for 2 h in the presence of 10% FBS and the cytosolic entry of the peptides was quantitated by flow cytometry analysis.
To determine cellular uptake efficiency of the CPPs disclosed herein, HeLa cells were cultured in 12-well plates (1.5×10^5 cells per well) overnight. The cells were incubated for 2 h with […] naphthofluorescein (NF)-labelled peptide in cellular media. At the end of incubation, the cells were washed with DPBS twice, detached from the plate with 0.25% trypsin, diluted into clear DMEM, pelleted at 250 g for 5 min, washed twice with DPBS, resuspended in DPBS, and analyzed on a BD FACS LSR II flow cytometer. For NF-labelled peptides, a 633-nm laser was used for excitation and the fluorescence emission was analyzed in the APC channel. Absolute cellular uptake efficiency was determined by comparing the concentration (via fluorescence intensity) of the CPP in the cytosol to the concentration in the extracellular medium. Relative cellular uptake efficiency was determined by comparing the cytosolic concentration of the CPP to that cytosolic concentration of the control CPP cyclo(FΦRRRRQ).

HeLa cells [2] = assay: Cellular entry by live-cell confocal imaging of FITC-labelled peptides; settings: 5 μM FITC-labelled peptide, 2 h
Procedure: CPP1-15 and CPP1-20 were labeled with FITC via a miniPEG-Lys linker. HeLa cells were treated with 5 μM peptide for 2 h, washed, and imaged by live-cell confocal imaging. […] Additional experiments are ongoing to further examine their mechanism of cell entry.

HeLa cells [3] = assay: Cytosolic entry efficiency of NF-labelled peptides by flow cytometry; settings: for Cellular Entry Efficiency In 1% FBS: relative to CPP12 (100%); for cytosolic entry efficiency: reduced serum concentration (1% FBS), CPP12 most active
[4] = Table 4, 5 μM NF-labelled peptide, 10% FBS
[5] = Table 7, 5 μM NF-labelled peptide, 10% FBS

Row | Substance | Cellular Entry Efficiency In 10% FBS (HeLa cells [1]; [4]) [%] | Cellular Entry Efficiency In 10% FBS (HeLa cells [1]; [5]) [%] | Cellular Entry Efficiency In 1% FBS (HeLa cells [3]; Table 4, NF-labelled peptide) [%] | Cellular Entry Efficiency In 1% FBS (HeLa cells [3]; Table 7, NF-labelled peptide) [%] | further results
1 | cyclo(Asp^DecyRRRRQ) (cyclo(DRRRRQ); not fully specified (residue 1); printed as cyclo(Asp^DecyRRRRQ)) [CPP1-20] | 281 ± 59 | 281 ± 59 | 94 ± 41 | 94 ± 41 | improvement in activity (HeLa cells [1]; 10% FBS, relative to CPP1-4): ~5 fold; sensitivity to serum concentration (HeLa cells [1]): lower sensitivity to serum concentration; fold more active than CPP9 and CPP12 (HeLa cells [1]; in the presence of 10% FBS): −3 fold; cellular entry (confocal imaging) (HeLa cells [2]): entered HeLa cells efficiently; cytosolic entry efficiency (HeLa cells [3]): 94%
2 | cyclo(Asp^DecyRrRrQ) [CPP1-22] | 11 | 11 | – | – | –
3 | cyclo(Asp^DecyrRrRQ) [CPP1-24] | 8.6 | 8.6 | – | – | –
4 | cyclo(Dap^1-PyrenRRRRQ) (cyclo([Dap](1‑pyrenoyl)RRRRQ)) [CPP1-5] | 10 ± 20 | 10 ± 20 | – | – | –
5 | cyclo(Dap^1-PyrenebRRRRQ) (cyclo([Dap](1‑pyrenylbutanoyl)RRRRQ)) [CPP1-8] | 24 ± 1 | 24 ± 1 | – | – | –
6 | cyclo(Dap^3,3-diphenyRRRRQ) (cyclo([Dap](3,3‑diphenylpropanoyl)RRRRQ)) [CPP1-6] | 3.9 ± 0.4 | 3.9 ± 0.4 | – | – | –
7 | cyclo(Dap^DecaARRRQ) (cyclo([Dap](Decanoyl)ARRRQ); SMILES CCCCCCCCCC(=O)NC[C@@H]1NC(=O)[C@H](CCC(N)=O)NC(=O)[C@H](CCCNC(=N)N)NC(=O)[C@H](CCCNC(=N)N)NC(=O)[C@H](CCCNC(=N)N)NC(=O)[C@H](C)NC1=O) [CPP1-12] | 26 ± 4 | 26 ± 4 | 34 | 34 | CPP activity compared with CPP1-4 (in words) (HeLa cells [1]): reduced the CPP activity
8 | cyclo(Dap^DecaRRRAQ) (cyclo([Dap](Decanoyl)RRRAQ); SMILES CCCCCCCCCC(=O)NC[C@@H]1NC(=O)[C@H](CCC(N)=O)NC(=O)[C@H](C)NC(=O)[C@H](CCCNC(=N)N)NC(=O)[C@H](CCCNC(=N)N)NC(=O)[C@H](CCCNC(=N)N)NC1=O) [CPP1-13] | 32 ± 2 | 32 ± 2 | 33 | 33 | CPP activity compared with CPP1-4 (in words) (HeLa cells [1]): reduced the CPP activity
9 | cyclo(Dap^DecaRRRQ) (cyclo([Dap](Decanoyl)RRRQ); SMILES CCCCCCCCCC(=O)NC[C@@H]1NC(=O)[C@H](CCC(N)=O)NC(=O)[C@H](CCCNC(=N)N)NC(=O)[C@H](CCCNC(=N)N)NC(=O)[C@H](CCCNC(=N)N)NC1=O) [CPP1-16] | 3.0 ± 0.1 | 3.0 ± 0.1 | 25 | 25 | CPP activity compared with CPP1-4 (in words) (HeLa cells [1]): greatly decreased the CPP activity
10 | cyclo(Dap^DecaRRRRQ) (cyclo([Dap](Decanoyl)RRRRQ); SMILES CCCCCCCCCC(=O)NC[C@@H]1NC(=O)[C@H](CCC(N)=O)NC(=O)[C@H](CCCNC(=N)N)NC(=O)[C@H](CCCNC(=N)N)NC(=O)[C@H](CCCNC(=N)N)NC(=O)[C@H](CCCNC(=N)N)NC1=O) [CPP1-4] | 57 ± 19 | 57 ± 19 | – | – | activity, fold higher than CPP1 (HeLa cells [1]; 10% FBS, versus CPP1): 2.5 fold; sensitivity to serum concentration (HeLa cells [1]): lower sensitivity to serum concentration; cytosolic entry efficiency (HeLa cells [3]): 44%
11 | cyclo(Dap^DecaRRRRRQ) (cyclo([Dap](Decanoyl)RRRRRQ); SMILES CCCCCCCCCC(=O)NC[C@@H]1NC(=O)[C@H](CCC(N)=O)NC(=O)[C@H](CCCNC(=N)N)NC(=O)[C@H](CCCNC(=N)N)NC(=O)[C@H](CCCNC(=N)N)NC(=O)[C@H](CCCNC(=N)N)NC(=O)[C@H](CCCNC(=N)N)NC1=O) [CPP1-14] | 12 ± 1 | 12 ± 1 | 21 | 21 | CPP activity compared with CPP1-4 (in words) (HeLa cells [1]): greatly decreased the CPP activity
12 | cyclo(Dap^DecaRrRrQ) [CPP1-10] | 21 ± 9 | 21 ± 9 | 24 | 24 | CPP activity compared with CPP1-4 (in words) (HeLa cells [1]): substantially decreased the CPP activity
13 | cyclo(Dap^DecarRrRQ) [CPP1-11] | 20 ± 6 | 20 ± 6 | 29 | 29 | CPP activity compared with CPP1-4 (in words) (HeLa cells [1]): substantially decreased the CPP activity
14 | cyclo(Dap^FmocRRRRQ) (cyclo([Dap](Fmoc)RRRRQ); SMILES N=C(N)NCCC[C@@H]1NC(=O)[C@H](CCCNC(=N)N)NC(=O)[C@H](CCCNC(=N)N)NC(=O)[C@H](CNC(=O)OCC2c3ccccc3-c3ccccc32)NC(=O)[C@H](CCC(N)=O)NC(=O)[C@H](CCCNC(=N)N)NC1=O) [CPP1-7] | 17 ± 1 | 17 ± 1 | – | – | –
15 | cyclo(Dap^HexanRRRRQ) (cyclo([Dap](Hexanoyl)RRRRQ); SMILES CCCCCC(=O)NC[C@@H]1NC(=O)[C@H](CCC(N)=O)NC(=O)[C@H](CCCNC(=N)N)NC(=O)[C@H](CCCNC(=N)N)NC(=O)[C@H](CCCNC(=N)N)NC(=O)[C@H](CCCNC(=N)N)NC1=O) [CPP1-2] | 2.9 ± 0.2 | 2.9 ± 0.2 | – | – | –
16 | cyclo(Dap^OctanRRRRQ) (cyclo([Dap](Octanoyl)RRRRQ); SMILES CCCCCCCC(=O)NC[C@@H]1NC(=O)[C@H](CCC(N)=O)NC(=O)[C@H](CCCNC(=N)N)NC(=O)[C@H](CCCNC(=N)N)NC(=O)[C@H](CCCNC(=N)N)NC(=O)[C@H](CCCNC(=N)N)NC1=O) [CPP1-3] | 5.7 ± 0.6 | 5.7 ± 0.6 | – | – | –
17 | cyclo(F^tBuRRRRQ) (cyclo([FtBu]RRRRQ)) [CPP1-1] | 6.7 ± 0.4 | 6.7 ± 0.4 | – | – | –
18 | cyclo(FfΦRrRrQ) [CPP12, reference compound] | 100 | 100 | 100 | 100 | –
19 | cyclo(FΦRRRRQ) (cyclo(F[2Nal]RRRRQ); SMILES N=C(N)NCCC[C@@H]1NC(=O)[C@H](CCCNC(=N)N)NC(=O)[C@H](CCCNC(=N)N)NC(=O)[C@H](Cc2ccc3ccccc3c2)NC(=O)[C@H](Cc2ccccc2)NC(=O)[C@H](CCC(N)=O)NC(=O)[C@H](CCCNC(=N)N)NC1=O) [CPP1, the first cyclic CPP discovered, reference compound] | 21 | 21 | – | – | –
20 | cyclo(Glu^DecyRrRrQ) [CPP1-23] | 1.4 | 1.4 | – | – | –
21 | cyclo(Glu^DecyrRrRQ) [CPP1-25] | 34 | 34 | – | – | –
22 | cyclo(Lys^DecaRrRrQ) [CPP1-18] | 31 | 31 | – | – | CPP activity compared with CPP1-15 (in words) (HeLa cells [1]): reduced the CPP activity
23 | cyclo(Lys^DecarRrRQ) [CPP1-19] | 12 | 12 | – | – | CPP activity compared with CPP1-15 (in words) (HeLa cells [1]): reduced the CPP activity
24 | cyclo(Orn^DecaRRRRQ) (cyclo([Orn](Decanoyl)RRRRQ); SMILES CCCCCCCCCC(=O)NCCC[C@@H]1NC(=O)[C@H](CCC(N)=O)NC(=O)[C@H](CCCNC(=N)N)NC(=O)[C@H](CCCNC(=N)N)NC(=O)[C@H](CCCNC(=N)N)NC(=O)[C@H](CCCNC(=N)N)NC1=O) [CPP1-17] | 115 ± 32 | 115 ± 32 | 58 ± 22 | 58 ± 22 | sensitivity to serum concentration (HeLa cells [1]): lower sensitivity to serum concentration; CPP activity compared with CPP1-4 (in words) (HeLa cells [1]): slightly increased the CPP activity; cytosolic entry efficiency (HeLa cells [3]): 58%
25 | cyclo(fΦRrRrQ) [CPP9, reference compound] | 94 ± 7 | 94 ± 7 | 32 ± 6 | 32 ± 6 | cytosolic entry efficiency (HeLa cells [3]): 32%
